Experimental data taken from PubChem BioAssay (NCI).
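Exposure lasted 48 hours, with cells grown in 96-well plates and compounds tested at five concentrations. GI50 = concentration required for 50% inhibition of growth. TGI is the concentration that stops growth completely.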

Key:
Experiment in all cases: NCI anticancer screen, dose series, 48 h
[1] = test system: OVCAR-8 ovarian
[2] = test system: A498 renal
[3] = test system: RXF 393 renal
[4] = test system: LOX IMVI melanoma
[5] = test system: OVCAR-3 ovarian
[6] = test system: NCI-H226 lung
[7] = test system: K-562 leukemia
[8] = test system: CCRF-CEM leukemia
[9] = test system: SR leukemia
[10] = test system: DU-145 prostate
[11] = test system: HT29 colon
[12] = test system: SNB-75 CNS
[13] = test system: OVCAR-5 ovarian
[14] = test system: PC-3 prostate
[15] = test system: MALME-3M melanoma
[16] = test system: NCI/ADR-RES ovarian
[17] = test system: SNB-19 CNS
[18] = test system: NCI-H460 lung
[19] = test system: HS 578T breast
[20] = test system: 786-0 renal
[21] = test system: HCC-2998 colon
[22] = test system: SW-620 colon
[23] = test system: SK-MEL-5 melanoma
[24] = test system: U251 CNS
[25] = test system: MDA-MB-468 breast
[26] = test system: HOP-92 NSCLC
[27] = test system: HCT-116 colon
[28] = test system: EKVX NSCLC
[29] = test system: CAKI-1 renal
[30] = test system: SK-OV-3 ovarian
[31] = test system: BT-549 breast
[32] = test system: HCT-15 colon
[33] = test system: SF-295 CNS
[34] = test system: MCF7 breast
[35] = test system: UACC-257 melanoma
[36] = test system: TK-10 renal
[37] = test system: HOP-62 NSCLC
[38] = test system: MOLT-4 leukemia
[39] = test system: UO-31 renal
[40] = test system: MDA-MB-231 breast
[41] = test system: SF-268 CNS
[42] = test system: COLO 205 colon
[43] = test system: SK-MEL-28 melanoma
[44] = test system: A549 NSCLC
[45] = test system: SF-539 CNS
[46] = test system: KM12 colon
[47] = test system: HL-60(TB) leukemia
[48] = test system: NCI-H23 lung
[49] = test system: NCI-H522 lung
[50] = test system: M14 melanoma
[51] = test system: SK-MEL-2 melanoma
[52] = test system: MDA-MB-435
[53] = test system: OVCAR-4 ovarian
[54] = test system: ACHN renal
[55] = test system: UACC-62 melanoma
[56] = test system: IGROV1 ovarian
[57] = test system: SN12C renal
[58] = test system: T-47D breast
[59] = test system: RPMI-8226 leukemia

Q: `CCOc1ccccc1[C@H]1C(C(=O)c2ccc(Cl)cc2)C2(N[C@@H]1c1ccccc1)C(=O)Nc1ccccc12` (stereo partly drawn) was tested. Which GI50 [1] did it give?
A: Its GI50 is 11.9 µM.

Q: What about the TGI [1] of the same compound?
A: The TGI was greater than 39.8 µM.

Q: What about the GI50 [2] of the same compound?
A: Its GI50 is 7.7 µM.

Q: And the TGI [2]?
A: Its TGI is 20.7 µM.

Q: And the GI50 [3]?
A: Its GI50 is 5.35 µM.

Q: What about the TGI [3] of the same compound?
A: The TGI was 19.2 µM.

Q: What about the GI50 [4] of the same compound?
A: The GI50 was 2.85 µM.

Q: And the TGI [4]?
A: The TGI was 10.3 µM.

Q: And the GI50 [5]?
A: Its GI50 is 7.68 µM.

Q: What about the TGI [5] of the same compound?
A: The TGI was greater than 39.8 µM.

Q: What about the GI50 [6] of the same compound?
A: The GI50 was 5.44 µM.

Q: And the TGI [6]?
A: The TGI was 18.5 µM.

Q: And the GI50 [7]?
A: Its GI50 is 9.06 µM.

Q: And the TGI [7]?
A: Its TGI is greater than 39.8 µM.

Q: What about the GI50 [8] of the same compound?
A: Its GI50 is 29.2 µM.

Q: What about the TGI [8] of the same compound?
A: The TGI was greater than 39.8 µM.

Q: What about the GI50 [9] of the same compound?
A: The GI50 was 9.21 µM.

Q: And the TGI [9]?
A: Its TGI is greater than 39.8 µM.

Q: And the GI50 [10]?
A: The GI50 was 13.1 µM.

Q: What about the TGI [10] of the same compound?
A: Its TGI is greater than 39.8 µM.

Q: And the GI50 [11]?
A: Its GI50 is 7.26 µM.

Q: And the TGI [11]?
A: The TGI was 36.1 µM.

Q: What about the GI50 [12] of the same compound?
A: Its GI50 is 6.24 µM.

Q: What about the TGI [12] of the same compound?
A: Its TGI is greater than 39.8 µM.

Q: And the GI50 [13]?
A: The GI50 was 10.1 µM.

Q: And the TGI [13]?
A: The TGI was greater than 39.8 µM.

Q: What about the GI50 [14] of the same compound?
A: The GI50 was 2.77 µM.

Q: And the TGI [14]?
A: Its TGI is greater than 39.8 µM.

Q: What about the GI50 [15] of the same compound?
A: Its GI50 is 7.4 µM.

Q: And the TGI [15]?
A: Its TGI is 18.6 µM.

Q: And the GI50 [16]?
A: Its GI50 is 5.64 µM.

Q: And the TGI [16]?
A: The TGI was 16.6 µM.

Q: And the GI50 [17]?
A: Its GI50 is 16.6 µM.

Q: And the TGI [17]?
A: Its TGI is greater than 39.8 µM.

Q: And the GI50 [18]?
A: The GI50 was 8 µM.

Q: And the TGI [18]?
A: Its TGI is 21.5 µM.

Q: And the GI50 [19]?
A: Its GI50 is 6.08 µM.

Q: And the TGI [19]?
A: Its TGI is 22.9 µM.

Q: And the GI50 [20]?
A: Its GI50 is 8.94 µM.

Q: What about the TGI [20] of the same compound?
A: The TGI was greater than 39.8 µM.

Q: What about the GI50 [21] of the same compound?
A: The GI50 was 7.9 µM.

Q: What about the TGI [21] of the same compound?
A: Its TGI is 29.8 µM.

Q: And the GI50 [22]?
A: The GI50 was 10.1 µM.

Q: What about the TGI [22] of the same compound?
A: Its TGI is greater than 39.8 µM.

Q: What about the GI50 [23] of the same compound?
A: Its GI50 is 6.1 µM.

Q: And the TGI [23]?
A: The TGI was 12.2 µM.

Q: And the GI50 [24]?
A: The GI50 was 13 µM.

Q: And the TGI [24]?
A: Its TGI is greater than 39.8 µM.

Q: And the GI50 [25]?
A: The GI50 was 1.31 µM.

Q: What about the TGI [25] of the same compound?
A: Its TGI is 8.19 µM.

Q: What about the GI50 [26] of the same compound?
A: The GI50 was 6.65 µM.

Q: And the TGI [26]?
A: Its TGI is 29.3 µM.

Q: What about the GI50 [27] of the same compound?
A: Its GI50 is 6.75 µM.

Q: What about the TGI [27] of the same compound?
A: The TGI was greater than 39.8 µM.

Q: What about the GI50 [28] of the same compound?
A: Its GI50 is 8.62 µM.

Q: What about the TGI [28] of the same compound?
A: Its TGI is greater than 39.8 µM.

Q: And the GI50 [29]?
A: The GI50 was 4.08 µM.

Q: And the TGI [29]?
A: The TGI was greater than 39.8 µM.

Q: And the GI50 [30]?
A: Its GI50 is 22.1 µM.

Q: And the TGI [30]?
A: The TGI was greater than 39.8 µM.

Q: And the GI50 [31]?
A: The GI50 was 6.89 µM.

Q: And the TGI [31]?
A: The TGI was 22.8 µM.

Q: What about the GI50 [32] of the same compound?
A: The GI50 was 8.87 µM.

Q: What about the TGI [32] of the same compound?
A: Its TGI is greater than 39.8 µM.

Q: And the GI50 [33]?
A: Its GI50 is 7.88 µM.

Q: And the TGI [33]?
A: The TGI was greater than 39.8 µM.

Q: What about the GI50 [34] of the same compound?
A: The GI50 was 6.78 µM.

Q: What about the TGI [34] of the same compound?
A: The TGI was greater than 39.8 µM.

Q: What about the GI50 [35] of the same compound?
A: Its GI50 is 8.91 µM.

Q: And the TGI [35]?
A: Its TGI is greater than 39.8 µM.

Q: What about the GI50 [36] of the same compound?
A: The GI50 was 15.6 µM.

Q: What about the TGI [36] of the same compound?
A: The TGI was greater than 39.8 µM.

Q: What about the GI50 [37] of the same compound?
A: Its GI50 is 18.9 µM.

Q: What about the TGI [37] of the same compound?
A: The TGI was greater than 39.8 µM.

Q: And the GI50 [38]?
A: The GI50 was 4.68 µM.

Q: And the TGI [38]?
A: Its TGI is greater than 39.8 µM.

Q: And the GI50 [39]?
A: The GI50 was 5.82 µM.

Q: What about the TGI [39] of the same compound?
A: Its TGI is greater than 39.8 µM.

Q: And the GI50 [40]?
A: Its GI50 is 5.37 µM.

Q: What about the TGI [40] of the same compound?
A: The TGI was 34.3 µM.

Q: And the GI50 [41]?
A: Its GI50 is 12.2 µM.

Q: And the TGI [41]?
A: Its TGI is greater than 39.8 µM.

Q: And the GI50 [42]?
A: The GI50 was 6.82 µM.

Q: And the TGI [42]?
A: The TGI was 14 µM.

Q: What about the GI50 [43] of the same compound?
A: The GI50 was 17.4 µM.

Q: And the TGI [43]?
A: The TGI was greater than 39.8 µM.

Q: What about the GI50 [44] of the same compound?
A: Its GI50 is 10.4 µM.

Q: What about the TGI [44] of the same compound?
A: The TGI was greater than 39.8 µM.

Q: What about the GI50 [45] of the same compound?
A: The GI50 was 23.3 µM.

Q: And the TGI [45]?
A: Its TGI is greater than 39.8 µM.

Q: And the GI50 [46]?
A: The GI50 was 11.3 µM.

Q: What about the TGI [46] of the same compound?
A: The TGI was greater than 39.8 µM.

Q: And the GI50 [47]?
A: Its GI50 is 5.6 µM.

Q: And the TGI [47]?
A: Its TGI is 32.4 µM.

Q: What about the GI50 [48] of the same compound?
A: The GI50 was 7.78 µM.

Q: What about the TGI [48] of the same compound?
A: Its TGI is greater than 39.8 µM.

Q: And the GI50 [49]?
A: Its GI50 is 6.14 µM.

Q: What about the TGI [49] of the same compound?
A: Its TGI is 22.8 µM.

Q: And the GI50 [50]?
A: The GI50 was 7.69 µM.

Q: And the TGI [50]?
A: The TGI was greater than 39.8 µM.

Q: What about the GI50 [51] of the same compound?
A: The GI50 was 7.37 µM.

Q: What about the TGI [51] of the same compound?
A: Its TGI is 17.5 µM.

Q: What about the GI50 [52] of the same compound?
A: The GI50 was 4.06 µM.

Q: And the TGI [52]?
A: The TGI was 16.3 µM.

Q: And the GI50 [53]?
A: Its GI50 is 14.8 µM.

Q: And the TGI [53]?
A: Its TGI is greater than 39.8 µM.

Q: What about the GI50 [54] of the same compound?
A: The GI50 was 10.1 µM.

Q: And the TGI [54]?
A: The TGI was greater than 39.8 µM.

Q: And the GI50 [55]?
A: The GI50 was 4.65 µM.

Q: What about the TGI [55] of the same compound?
A: The TGI was 18.2 µM.

Q: What about the GI50 [56] of the same compound?
A: Its GI50 is 8.69 µM.

Q: And the TGI [56]?
A: Its TGI is greater than 39.8 µM.

Q: What about the GI50 [57] of the same compound?
A: The GI50 was 5.56 µM.

Q: What about the TGI [57] of the same compound?
A: Its TGI is 11.9 µM.

Q: And the GI50 [58]?
A: Its GI50 is 6.48 µM.

Q: What about the TGI [58] of the same compound?
A: The TGI was greater than 39.8 µM.

Q: What about the GI50 [59] of the same compound?
A: Its GI50 is 8.82 µM.

Q: And the TGI [59]?
A: The TGI was greater than 39.8 µM.
